Like-named read-outs stand apart in the source and are kept apart here.
What was measured:
[1] = conjugate acid pKa, cited from earlier work
[2] = Accelerated oxidative degradation of diethanolamine solutions with sacrificial amine (CO2/O2, 55° C., 13C-NMR); details: 5.9 mol/L DEA and 0.1 mol/L additive, CO2 (1 bar), O2 (9 bar), 115 hours
Protocol: The effect of 3-aminomethylpyridine (3-AMPy) and benzylamine (BZA) on the degradation of DEA was investigated using accelerated degradation conditions designed to simulate longer-term degradation in a gas capture process. DEA solutions were thus prepared as follows: i) 6 mol/L DEA; ii) 5.9 mol/L DEA and 0.1 mol/L BZA; and iii) 5.9 mol/L DEA and 0.1 mol/L 3-AMPy. Each solution (10 ml) was placed in a Fischer-Porter vessel. The vessels were sealed and the remaining headspace of the vessels was filled with CO2 (1 bar) and O2 (9 bar). The liquid phase in the vessels was stirred via magnetic stirring bars and heated to 55° C. by immersion in a water bath for 115 hours.
Samples were then taken and analysed by ^13C-NMR spectroscopy (Bruker Avance 400).

[3] = Accelerated oxidative degradation of benzylamine (CO2/O2, 55° C., 13C-NMR); format: physicochemical; details: 1 mol/L, CO2 (1 bar) and O2 (9 bar), 10 days, relative 13C-NMR peak areas
Protocol: A solution of 10 mL of 1 mol/L BZA was placed in a Fischer-Porter vessel. […] Based on relative peak areas approximately 41% of the BZA had been converted to imine.

[4] = Extraction of imine dimer by solid absorption on Amberlite XAD-2; format: physicochemical; details: Amberlite XAD-2, stirred 2 hours, 13C NMR
Protocol: (§1) A sample of the aqueous absorbent, which had initially contained 3 mol/L 3-AMPy and 3 mol/L 2-amino-2-methyl-1-propanol (AMP), was taken after 5000 hours (c.a. 208 days) of operation in the pilot plant campaign described in Example 2. Despite the improved stability of the solution as a result of the AMP, imine dimer degradation product was present in significant quantities (c.a. 0.35 mol/litre) by this time.
Amberlite XAD-2, a hydrophobic crosslinked polystyrene copolymer resin, was washed 3 times in deionized water followed by washing 3 times in dichloromethane (DCM). The cleaned beads were mixed with the absorbent sample that had been exposed to 5000 hours of flue gas. The mixture was stirred for 2 hours to allow the hydrophobic components to adhere to the polymer resin. The mixture was filtered to remove the water soluble portion of the degraded amine absorbent. The beads were washed with water and this water added to the filtrate. The beads were then washed with 3 portions of DCM, and the collected DCM was partially evaporated.
Very little amine was extracted into the beads and carried over to the DCM wash, as evidenced by the lack of peaks near 42 ppm (these peaks are present in the sample and aqueous filtrate spectra). […]

[5] = Extraction of imine dimer into organic solvents (liquid-liquid partition, GC-MS, 13C NMR); format: physicochemical
Protocol: as §1, with “3800” for “5000”, “158” for “208”, “AMP, it is evident from FIG. 3 that” for “AMP,”, “0.2” for “0.35”
Equal volumes of the sample and dichloromethane were vigorously shaken in a separating funnel and allowed to undergo phase separation. The two phases were then collected and separately analysed by GC-MS. FIGS. 4 and 5 depict gas chromatographs of the organic and aqueous phases respectively, with the peaks identified by mass spectrometry via comparison against libraries of reference spectra.
Samples of the same aqueous absorbent were also extracted with equal volumes of toluene or ethyl acetate. The organic phases after extraction with dichloromethane, toluene and ethyl acetate were analysed by ^13C NMR.

[6] = Hydrolysis of imine dimer under acidic aqueous conditions; format: physicochemical; details: acetic acid and water with DCM solution, room temperature, 24 hours
Excerpt: The imine of Formula (II) is found to be unstable in acidic aqueous conditions. For the case where the degradation product is extracted from the liquid absorbent into an organic solvent, hydrolysis may thus be achieved by contacting the separated organic phase with an acidified aqueous phase, for example containing a catalytic amount of acetic acid. After suitable mixing and time for hydrolysis, the two phases are separated by conventional liquid-liquid separation techniques, with the regenerated amine of Formula (I) partitioned into the aqueous phase and the less polar aldehyde of Formula (III) remaining in the organic phase. The aqueous phase, now containing a first portion of regenerated amine of Formula (I), may then be recycled to the gas absorption process. It will be appreciated that a theoretical maximum of 50 mol % of the degraded amine may be recovered by this process step, since each molecule of imine incorporates two amine molecules.
A sample of the aqueous absorbent, which had initially contained 3 mol/L 3-AMPy and 3 mol/L 2-amino-2-methyl-1-propanol (AMP) and was taken after c.a. 3800 hours (c.a. 158 days) of operation in the pilot plant campaign described in Example 2. The sample was shaken with an equal volume of dichloromethane (DCM) in a separating funnel for 1 minute. The phases were then allowed to separate and each phase was collected separately. […]

[7] = Viscosity of absorbent (Anton Parr LOVIS 2000 ME, 40° C.); format: physicochemical; details: imine added to fresh absorbent
Protocol: Another sample of the aqueous absorbent, which had initially contained 3 mol/L 3-AMPy and 3 mol/L 2-amino-2-methyl-1-propanol (AMP) and was taken after c.a. 5000 hours (c.a. 208 days) of operation in the pilot plant campaign described in Example 2, was extracted with dichloromethane as described in Example 5. As a result of the extraction, the viscosity of the sample was reduced from 9.9 mPa·s to 6.0 mPa·s (measured at 40° C. using an Anton Parr LOVIS 2000 ME instrument). By comparison, the viscosity of the fresh, CO2 free absorbent was 4.7 mPa·s. The effect of the viscosity reduction is to improve the performance of the absorbent in the plant through better flow properties and reduced mass transfer resistance.
The synthesised imine (structure confirmed by IR spectroscopy) was added to fresh absorbent and the impact on viscosity measured (measured at 40° C. using an Anton Parr LOVIS 2000 ME).

CC(N)CO (stereo not drawn) [2-amino-1-propanol]
pKa at 25° C. ([1]; table in description): 9.5
pKa at 25° C. ([1]; table of Example 4): 9.5

OCC1CCCCN1 (stereo not drawn) [2-piperidinylmethanol]
pKa at 25° C. ([1]; table of Example 4): 10.1

NCc1cccnc1 [3-(aminomethyl)pyridine]
DEA degradation (13C-NMR peak at 67 ppm) in presence of sacrificial amine [2]: this degradation has not occurred

OCC1CCNCC1 [4-piperidinylmethanol]
pKa at 25° C. ([1]; table of Example 4): 10.6

NCc1ccccc1 [BZA, benzylamine]
amine converted to imine [3]: approximately 41%

C(=NCc1cccnc1)c1cccnc1 [imine dimer]
extraction by hydrophobic resin beads [4]: majority of the imine was extracted
extraction into organic phase ([5]; dichloromethane, toluene or ethyl acetate, equal volumes, 13C NMR): successful and selective extraction
phase distribution after extraction ([5]; equal volumes of used absorbent sample and dichloromethane, GC-MS): almost exclusively present in the organic phase
stability under acidic aqueous conditions [6]: unstable
impact on viscosity of fresh absorbent [7]: increased with the concentration of synthetic imine added

NCCS(=O)(=O)[O-].[K+] [potassium taurate]
pKa at 25° C. ([1]; table in description): 9.1
pKa at 25° C. ([1]; table of Example 4): 9.1

NCC(=O)[O-].[Na+] [sodium glycinate]
pKa at 25° C. ([1]; table in description): 9.6
pKa at 25° C. ([1]; table of Example 4): 9.6
